Assay results: patent publication US7622289B2, “Ornithine aminotransferase (OAT): a target for anticancer drugs” (Board of Regents, The University of Texas System, priority 2006, dated 2009)
Residues, ends and D or L forms follow the SMILES beside them. *: point of attachment. Cbz = O=C(OCc1ccccc1)*; CH2F = FC*

Assays:
OAT enzymatic activity = biological target: T1, OAT enzymatic activity (Mus musculus, UniProt P29758); assay: Ornithine aminotransferase activity in crude mitochondrial extracts from mouse liver; type: biochemical; conditions: increasing concentrations
T1 construct: Crude mitochondrial extracts from mouse liver were assayed for ornithine aminotransferase activity; from tissue; host or cells: mouse liver, crude mitochondrial extract
T1 sequence (P29758 26-439): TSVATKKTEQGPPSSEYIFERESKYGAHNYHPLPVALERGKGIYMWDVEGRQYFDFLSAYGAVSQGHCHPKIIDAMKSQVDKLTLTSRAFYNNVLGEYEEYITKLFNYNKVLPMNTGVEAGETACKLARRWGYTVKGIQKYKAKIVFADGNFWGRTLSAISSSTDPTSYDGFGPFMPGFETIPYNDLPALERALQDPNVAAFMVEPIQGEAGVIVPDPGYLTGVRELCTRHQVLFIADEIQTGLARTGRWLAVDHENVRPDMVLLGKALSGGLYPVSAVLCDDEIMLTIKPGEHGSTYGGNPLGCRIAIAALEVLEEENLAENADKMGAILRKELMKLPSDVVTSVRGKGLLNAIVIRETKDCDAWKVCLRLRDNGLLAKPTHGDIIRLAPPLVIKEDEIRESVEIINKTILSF
Description: To determine if diazonamide binds to OAT directly, recombinant His-tagged hOAT was produced in bacteria, purified, and incubated with compound 3-coated avidin agarose. […] We next examined the impact of diazonamide binding on OAT enzymatic activity. Crude mitochondrial extracts from mouse liver were assayed for ornithine aminotransferase activity in the presence of increasing concentrations of compounds 2 or 3.

HeLa cell = HeLa cell growth inhibition; type: cell-based, human
Description: Biotin conjugate 3 (Table 1) was prepared to facilitate isolation of diazonamide binding proteins using avidin-based affinity chromatography. […] As a negative control, seco analog 5 was synthesized:
This molecule is identical to 3 except it lacks the biaryl linkage connecting carbons 16 and 18 (Table 1).

HeLa cells = assay: Mitotic arrest and spindle phenotype in HeLa cells; type: cell-based, human; conditions: 30 nM, eighteen hours following dosage
Text: Suitable spindle assembly systems include Xenopus egg extracts, Hela cells, COS-7 cells, CHO cells, U20S cells, etc. An agent-biased spindle assembly is a spindle-assembly that has a phenotype that differs from that of the first spindle assembly (i.e. the normal control). […] The spindle phenotypes are typically visualized by fixing the cells or cell extracts and differentially staining the α-tubulin and DNA [5]. Spindle assembly can also be visualized by live cell imaging.
Biotin conjugate 3 (Table 1) was prepared to facilitate isolation of diazonamide binding proteins using avidin-based affinity chromatography. […] As a negative control, seco analog 5 was synthesized: […]

[1] = test system: wild-type human fibroblasts; assay: Mitotic arrest (cell rounding) in wild-type human fibroblasts; type: cell-based; conditions: 10 nM for 30 hrs
Description: (§1) The OAT locus has been examined in fibroblasts derived from GA patients wherein various point and nonsense mutations have been characterized (20). Such cell lines offered another means to solidify the connection between OAT, diazonamide, and its anti-mitotic properties. When wild-type human fibroblasts were exposed to 10 nM diazonamide A for 30 hrs, >60% of cells rounded up—indicative in this case of mitotic arrest. […] Among the mutant cell lines examined only R154L and R180T variants express OAT protein.

[2] = test system: fibroblast lines derived from gyrate atrophy patients harboring OAT mutations; assay: Mitotic arrest (cell rounding) in gyrate atrophy patient fibroblasts; type: cell-based, human; conditions: OAT mutations: initiator methionine, R154L, R180T, W391 nonsense
Description: as §1

BS-C-1 and PTK2 culture = assay: Interphase microtubules in BS-C-1 and PTK2 culture; type: cell-based; conditions: at GI50 concentrations
Description: COMPARE pattern analysis of observed cytotoxic/cytostatic activities implied a mechanistic correlation between diazonamide and microtubule de-polymerizing agents such as maytansine and vinblastine. […] To test this possibility, a synthetic variant of diazonamide A (2, Table 1) was prepared.

[3] = test system: cultured human cancer cell; conditions: cited from earlier work
tubulin = conditions: cited from earlier work
[4] = test system: endogenous OAT in HeLa cells; assay: OAT siRNA knock-down in HeLa cells; type: cell-based, human; conditions: added to OAT siRNA-treated HeLa cells
Text: OAT is well characterized as a mitochondrial matrix enzyme. In this context it regulates flux through the urea cycle and couples, indirectly, proline biosynthesis to the availability of fumarate for consumption in the TCA cycle (19). For reasons not completely understood, mutations in the human enzyme are associated with a progressive degeneration of the retina and choroid termed gyrate atrophy (20).

Structure (SMILES): C#CC(N)CCC(=O)O (centres unmarked) [4-aminohex-5-ynoic acid]
- inhibition of conversion of L-ornithine to L-Δ1-pyrroline-5-carboxylic acid (OAT enzymatic activity): suppressed the activity in a dose dependent manner

Structure (SMILES): CC(C)[C@H](O)C(=O)N[C@H]1Cc2ccc3c(c2)[C@]24C5=C(N=C(O5)[C@H](C(C)C)NC1=O)c1nc(Cl)c(o1)-c1c(Cl)[nH]c5cccc(c15)-c1cccc2c1N[C@@H]4O3 [Compound 1, (-)-diazonamide A]
- GI50 (HeLa cell): 5 nM
- spindle phenotype (HeLa cells): multi-pole spindle phenotype with misaligned chromosomes
- cells rounded up (mitotic arrest) [1]: > 60%
- response of gyrate atrophy fibroblast lines [2]: resistant to the compound
- impact on interphase microtubules (BS-C-1 and PTK2 culture): little impact on interphase microtubules
- concentration inhibiting cultured human cancer cell growth [3]: low nanomolar concentrations
- competition with vinca alkaloids or nocadazole for tubulin binding (tubulin): did not compete
- purified tubulin polymerization in vitro (tubulin): inhibit purified tubulin polymerization in vitro

Structure (SMILES): N=C(N)NCCC[C@H](N)C(=O)O [L-arginine]
- blocking of cell death in OAT siRNA-treated cells [4]: failed to attenuate the rate of death or restore normal spindle assembly

Structure (SMILES): CC(NC(=O)C(NC(=O)OCc1ccccc1)C(C)C)C(=O)NC(CC(=O)O)C(=O)CF (stereo not drawn) [Z-VAD] (Cbz-Val-Ala-Asp-CH2F; configuration not given here)
- blocking of cell death in OAT siRNA-treated cells [4]: not blocked
